The values below are quoted from earlier work in US20210319872A1, “DRUG AND DEVICE COMBINATION PRODUCTS WITH IMPROVED SAFETY AND EFFICACY PROFILES” (priority 2016, published 2021).

The conditions of this data set: in vivo.

In the case of `CCOC(=O)[C@H](CCc1ccccc1)N[C@@H](C)C(=O)N1[C@H](C(=O)O)C[C@H]2CCCC[C@@H]21` [Trandolapril (Mavik)], the Cardiogenic shock entry is given as “Cardiovascular: Cardiogenic shock (3.8%), Intermittent”; the Cough result is recorded as “Respiratory: Cough (1.9% to 35%)”; the Dizziness result was “Neurologic: Dizziness (1.3% to 23%)”; the Hyperkalemia result is on record as “Endocrine metabolic: Hyperkalemia (0.3% to 5.3%)”. For the same molecule, the Hypotension entry is reported as “Cardiovascular: Hypotension (0.6% to 11%), Syncope (5.9%)”; the Indigestion entry was “Gastrointestinal: Indigestion (0.3% to 6.4%)”; the Intermittent claudication result is “claudication (3.8%)”; the “Serum blood urea nitrogen raised” value is on record as “Renal: Serum blood urea nitrogen raised (9%)”. The Syncope result is “Cardiovascular: Hypotension (0.6% to 11%), Syncope (5.9%)”.
Turning to `N=C(N)NC(=O)c1nc(Cl)c(N)nc1N` [Amiloride (Midamor)], the Asthenia entry is reported as “Musculoskeletal: Asthenia (greater than 1% to less than 3%),”; the “Cardiac dysrhythmia (incidence)” value is on record as “Cardiovascular: Cardiac dysrhythmia (1% or less), Palpitations (1%”; the “Cough (incidence)” value is given as “Respiratory: Cough (greater than 1% to less than 3%), Dyspnea”; the Cramp entry was “Cramp (greater than 1% to less than 3%)”. Further, the Diarrhea result is “Gastrointestinal: Diarrhea (3% to 8%), Loss of appetite (3% to 8%),”; the Dizziness result is given as “Neurologic: Dizziness (greater than 1% to less than 3%), Headache”; the “Dyspnea (incidence)” value is “(greater than 1% to less than 3%)”; the “Encephalopathy (incidence)” value is given as “Neurologic: Encephalopathy (greater than 1% to less than 3%)”. The “Headache (incidence)” value is on record as “(3% to 8%)”; the “Hyperkalemia (incidence)” value is “Endocrine metabolic: Hyperkalemia (10%)”; the Nausea result is “Nausea (3% to 8%), Vomiting (3% to 8%)”; the “Palpitations (incidence)” value is listed as “Cardiovascular: Cardiac dysrhythmia (1% or less), Palpitations (1%”. The “Raised intraocular pressure (incidence)” value was “Ophthalmic: Raised intraocular pressure (1% or less)”; the Rash result is “Dermatologic: Rash (1% or less)”; the “Serious side effect listed (incidence not given)” value was “Hematologic: Aplastic anemia, Neutropenia”; the Vomiting result is on record as “Nausea (3% to 8%), Vomiting (3% to 8%)”.
Take `NCCCC[C@H](N[C@@H](CCc1ccccc1)C(=O)O)C(=O)N1CCC[C@H]1C(=O)O` [Lisinopril (Prinivil, Zestril)]: the Dizziness entry is on record as “Neurologic: Dizziness (12% to 19%), Headache”; the Hyperkalemia result is “Endocrine metabolic: Hyperkalemia (2.2% to 6%)”; the Hypotension entry is “Cardiovascular: Chest pain, Hypotension (up to 11%), Syncope”; the “Hypotension (Severe)” value is on record as “Cardiovascular: Hypotension (Severe) (9%)”. The Renal impairment result was “Renal: Acute renal failure, Renal impairment (2.4%)”; the Stevens-Johnson syndrome entry was “Dermatologic: Stevens-Johnson syndrome (1% or more), Toxic”; the Syncope entry is “(5% to 7%)”.
Regarding `COc1ccc(-n2nc(C(N)=O)c3c2C(=O)N(c2ccc(N4CCCCC4=O)cc2)CC3)cc1` [Apixaban (Eliquis)], the Bleeding gums entry is “Gastrointestinal: Bleeding gums (Less than 0.1% to 1.4%)”; the “Bleeding, Major” value is listed as “prophylaxis, 2.88% to 4.83%), Bleeding, Major (0.1% to 2.13%),”; the Conjunctival hemorrhage result is listed as “Ophthalmic: Conjunctival hemorrhage (0.1% to less than 1%),”; the Contusion entry is on record as “Dermatologic: Contusion (1.4% to 2.2%)”. Further, the Hematochezia entry is recorded as “pulmonary embolism, 0.1% to less than 1%), Hematochezia (0.1%”; the Hematoma result is reported as “Hematologic: Hematoma (DVT, 1.3% to 1.5%)”; the Hemorrhage entry was “Hemorrhage (0.1% to 1.4%), Hemorrhage, Operative (DVT”; the Hemorrhage of muscle entry is reported as “Musculoskeletal: Hemorrhage of muscle (Less than 0.1% to less”. Moreover, the “Hemorrhage, Operative” value is recorded as “prophylaxis, 0.1% to less than 1%)”; the Hypersensitivity reaction is reported as less than 1%); the Intracranial hemorrhage entry is given as “fibrillation, 0.33% to 0.34%/year), Non-traumatic spinal subdural”; the Intraocular hemorrhage entry is listed as “Intraocular hemorrhage (Less than 0.1% to less than 1%), Retinal”. The “Liver function tests abnormal” value is on record as 0.1% to less than 1%), Serum bilirubin raised (DVT prophylaxis,; the Menorrhagia entry is recorded as “Reproductive: Menorrhagia (1.4%)”; the Retinal hemorrhage entry is recorded as “hemorrhage (0.1% to less than 1%)”; the Serum bilirubin raised is 0.1% to less than 1%).
Regarding `O=C(O)Cc1ccccc1Nc1c(Cl)cccc1Cl` [Zorvolex], the Constipation result is recorded as “Gastrointestinal: Constipation (5% to 8%), Diarrhea (6%), Nausea”; the Diarrhea result is “Gastrointestinal: Constipation (5% to 8%), Diarrhea (6%), Nausea”; the Headache entry is reported as “Neurologic: Headache (4% to 8%)”; the Nasopharyngitis result is listed as “Respiratory: Nasopharyngitis (6%), Sinusitis (3% to 5%), Upper”. Besides, the Nausea entry is on record as “(6% to 7%)”; the “Serious side effect, Cardiovascular” value is “Cardiovascular: Myocardial infarction, Thrombosis”; the “Serious side effect, Gastrointestinal” value is on record as “Gastrointestinal: Gastrointestinal hemorrhage, Gastrointestinal”; the “Serious side effect, Immunologic” value is on record as “Immunologic: Anaphylactoid reaction”. Besides, the “Serious side effect, Neurologic” value was “Neurologic: Cerebrovascular accident”; the “Serious side effect, Renal” value is “Renal: Acute renal failure”; the “Serious side effect, Respiratory” value is on record as “Respiratory: Bronchospasm”; the Sinusitis result is given as “Respiratory: Nasopharyngitis (6%), Sinusitis (3% to 5%), Upper”. For the same molecule, the Upper respiratory infection entry is given as “respiratory infection (8%)” and the “Urinary tract infectious disease” value was “Renal: Urinary tract infectious disease (7%)”.
With `Cn1c(CNc2ccc(C(=N)N)cc2)nc2cc(C(=O)N(CCC(=O)O)c3ccccn3)ccc21` [Dabigatran (Pradaxa)], the Bleeding entry is on record as “prophylaxis, 10.5%; nonvalvular atrial fibrillation, 16.6%)”; the “Bleeding, Major” value was 0.3% to 1.4%; nonvalvular atrial fibrillation, 3.3%), Thrombosis; the Gastroesophageal reflux disease entry is recorded as “disease (Atrial fibrillation, 5.5%), Gastrointestinal hemorrhage”; the Indigestion entry is recorded as “pulmonary embolism, 7.5%)”. The Myocardial infarction result is given as “embolism, 0.32% to 0.66%; nonvalvular atrial fibrillation, 0.7%)”.
